The values that follow come from US20090170878A1, “MACROCYCLIC COMPOUNDS USEFUL AS BACE INHIBITORS” (priority 2006, published 2009).

The target in this test is T1, Human BACE (Homo sapiens, UniProt P56817).
T1 construct: Recombinant BACE (extracellular domain, expressed in baculovirus and purified using standard methods); made in house; host or cells: baculovirus expression system (insect cells)
As to the kind of experiment: Test 1: Inhibition of Human BACE. The format is biochemical. Conditions: recombinant BACE extracellular domain, fluorescence-quenched APP-derived peptide substrate, pH 4.5. The protocol:
Test 1: Inhibition of Human BACE
Recombinant BACE (extracellular domain, expressed in baculovirus and purified using standard methods) at 0.1 to 10 nM concentrations is incubated with the test compound at various concentrations for 1 hour at room temperature in 10 to 100 mM acetate buffer, pH 4.5, containing 0.1% CHAPS. Synthetic fluorescence-quenched peptide substrate, derived from the sequence of APP and containing a suitable fluorophore-quencher pair, is added to a final concentration of 1 to 5 μM, and the increase in fluorescence is recorded at a suitable excitation/emission wavelength in a microplate spectro-fluorimeter for 5 to 30 minutes in 1-minute intervals. IC50 values are calculated from percentage of inhibition of BACE-activity as a function of the test compound concentration.

T1 sequence (P56817 46-457 limits assumed): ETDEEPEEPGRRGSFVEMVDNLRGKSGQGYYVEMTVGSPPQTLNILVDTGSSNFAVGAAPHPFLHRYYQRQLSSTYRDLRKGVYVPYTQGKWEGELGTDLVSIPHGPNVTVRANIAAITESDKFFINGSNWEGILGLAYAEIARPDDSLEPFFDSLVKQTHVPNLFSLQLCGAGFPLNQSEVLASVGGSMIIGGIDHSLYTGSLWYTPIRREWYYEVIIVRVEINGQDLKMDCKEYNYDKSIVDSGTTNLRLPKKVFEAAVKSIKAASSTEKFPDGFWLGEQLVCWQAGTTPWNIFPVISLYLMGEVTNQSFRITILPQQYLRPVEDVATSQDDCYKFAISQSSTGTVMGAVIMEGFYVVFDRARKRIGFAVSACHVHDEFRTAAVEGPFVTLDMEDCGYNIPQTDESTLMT

Usually IC50 stands for the concentration that gives 50% inhibition. With `CC(C)c1cccc(C2(NC[C@@H](O)[C@@H]3C[C@H](C)CCCCCCCCC(=O)N(C)[C@@H](C)C(=O)N3)CC2)c1` [Example 1, (3S,14R,16S)-16-{(R)-1-Hydroxy-2-[1-(3-isopropyl-phenyl)-cyclopropylamino]-ethyl}-3,4,14-trimethyl-1,4-diaza-cyclohexadecane-2,5-dione], the IC50 turned out to be 30 nM.
